Consider eight molecules from ChEMBL document CHEMBL5442219.

A word on the inhibition: it is the relative decrease from the control value, in per cent.

Conditions in all cases: Compound concentration 10 µM
The target of assay [1] is D(2) dopamine receptor (Homo sapiens) (UniProt P14416).
Assay [2] deals with Histamine H4 receptor (Homo sapiens) (UniProt Q9H3N8).
Assay [3] has as its target Beta-2 adrenergic receptor (Homo sapiens) (UniProt P07550).
For assay [4], the target named is Sigma intracellular receptor 2 (Homo sapiens) (UniProt Q5BJF2).
Assay [5] addresses 5-hydroxytryptamine receptor 1D (Homo sapiens) (UniProt P28221).
The target of assay [6] is 5-hydroxytryptamine receptor 1B (Homo sapiens) (UniProt P28222).
Assay [7] addresses Sodium-dependent dopamine transporter (Homo sapiens) (UniProt Q01959).
Assay [8] addresses 5-hydroxytryptamine receptor 2B (Homo sapiens) (UniProt P41595).
Assay [9] has as its target T1, 5-hydroxytryptamine receptor 3A (Homo sapiens) (UniProt P46098).
T1 sequence (whole entry): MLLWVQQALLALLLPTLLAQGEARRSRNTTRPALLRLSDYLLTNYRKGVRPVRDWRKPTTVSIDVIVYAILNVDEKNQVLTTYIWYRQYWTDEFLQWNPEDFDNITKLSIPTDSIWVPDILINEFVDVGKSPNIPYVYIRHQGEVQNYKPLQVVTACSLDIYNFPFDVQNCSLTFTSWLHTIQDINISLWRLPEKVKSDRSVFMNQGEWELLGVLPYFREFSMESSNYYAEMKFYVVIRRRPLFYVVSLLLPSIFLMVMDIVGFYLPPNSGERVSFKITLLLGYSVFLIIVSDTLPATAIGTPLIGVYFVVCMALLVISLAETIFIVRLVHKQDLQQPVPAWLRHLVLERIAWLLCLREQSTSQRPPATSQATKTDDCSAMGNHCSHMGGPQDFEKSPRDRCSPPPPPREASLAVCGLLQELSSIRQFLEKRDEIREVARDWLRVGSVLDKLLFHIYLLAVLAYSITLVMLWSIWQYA

Assay [10] deals with 5-hydroxytryptamine receptor 7 (Homo sapiens) (UniProt P34969).
Assay [11] addresses T2, Alpha-1A adrenergic receptor (Homo sapiens) (UniProt P35348).
T2 sequence (whole entry): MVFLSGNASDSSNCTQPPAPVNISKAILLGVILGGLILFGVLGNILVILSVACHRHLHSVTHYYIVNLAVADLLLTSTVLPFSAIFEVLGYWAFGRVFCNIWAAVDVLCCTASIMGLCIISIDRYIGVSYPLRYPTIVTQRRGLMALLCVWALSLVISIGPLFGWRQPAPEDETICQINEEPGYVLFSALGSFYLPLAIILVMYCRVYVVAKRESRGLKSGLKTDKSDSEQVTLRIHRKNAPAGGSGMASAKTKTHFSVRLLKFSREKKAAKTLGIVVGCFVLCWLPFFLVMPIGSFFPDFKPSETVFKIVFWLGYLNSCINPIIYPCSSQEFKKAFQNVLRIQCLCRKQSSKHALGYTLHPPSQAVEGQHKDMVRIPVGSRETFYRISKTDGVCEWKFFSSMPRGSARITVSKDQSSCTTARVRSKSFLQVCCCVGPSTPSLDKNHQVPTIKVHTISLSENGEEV

The target in assay [12] is Delta-type opioid receptor (Homo sapiens) (UniProt P41143).
Assay [13] addresses Mu-type opioid receptor (Homo sapiens) (UniProt P35372).
Assay [14] has as its target Muscarinic acetylcholine receptor M3 (Homo sapiens) (UniProt P20309).
Assay [15] deals with Histamine H1 receptor (Homo sapiens) (UniProt P35367).
The target in assay [16] is 5-hydroxytryptamine receptor 2A (Homo sapiens) (UniProt P28223).
Assay [17] deals with T3, Alpha-1D adrenergic receptor (Homo sapiens) (UniProt P25100).
T3 sequence (whole entry): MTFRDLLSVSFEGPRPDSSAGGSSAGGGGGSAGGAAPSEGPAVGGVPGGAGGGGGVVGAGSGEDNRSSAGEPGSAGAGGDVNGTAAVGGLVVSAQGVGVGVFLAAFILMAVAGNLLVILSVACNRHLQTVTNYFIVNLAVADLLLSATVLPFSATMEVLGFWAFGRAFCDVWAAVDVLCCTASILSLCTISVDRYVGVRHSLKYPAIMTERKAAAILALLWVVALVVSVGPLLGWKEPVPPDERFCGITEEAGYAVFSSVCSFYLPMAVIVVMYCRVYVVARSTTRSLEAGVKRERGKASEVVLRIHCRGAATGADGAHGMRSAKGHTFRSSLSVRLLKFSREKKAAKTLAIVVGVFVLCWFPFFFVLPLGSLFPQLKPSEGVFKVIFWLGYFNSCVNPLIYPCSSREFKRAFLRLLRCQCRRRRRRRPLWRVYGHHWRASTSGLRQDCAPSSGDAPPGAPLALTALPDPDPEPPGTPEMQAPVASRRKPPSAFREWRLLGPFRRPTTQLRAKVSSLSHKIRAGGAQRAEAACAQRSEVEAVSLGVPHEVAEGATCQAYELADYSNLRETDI

In assay [18] the target is D(3) dopamine receptor (Homo sapiens) (UniProt P35462).
The target in assay [19] is D(1B) dopamine receptor (Homo sapiens) (UniProt P21918).

Mu-type opioid receptor (Homo sapiens), sequence (P35372 whole entry): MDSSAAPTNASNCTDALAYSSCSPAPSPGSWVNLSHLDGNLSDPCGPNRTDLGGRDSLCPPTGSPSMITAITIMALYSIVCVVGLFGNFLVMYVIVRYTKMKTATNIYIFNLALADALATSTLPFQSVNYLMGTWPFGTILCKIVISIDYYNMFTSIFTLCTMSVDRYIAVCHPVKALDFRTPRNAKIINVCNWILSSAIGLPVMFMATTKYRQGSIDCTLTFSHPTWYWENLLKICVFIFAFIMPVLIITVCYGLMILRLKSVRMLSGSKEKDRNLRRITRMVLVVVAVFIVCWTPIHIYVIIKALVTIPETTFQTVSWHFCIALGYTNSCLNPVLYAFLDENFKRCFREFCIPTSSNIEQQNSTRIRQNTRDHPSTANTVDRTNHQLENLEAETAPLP
D(2) dopamine receptor (Homo sapiens), sequence (P14416 whole entry): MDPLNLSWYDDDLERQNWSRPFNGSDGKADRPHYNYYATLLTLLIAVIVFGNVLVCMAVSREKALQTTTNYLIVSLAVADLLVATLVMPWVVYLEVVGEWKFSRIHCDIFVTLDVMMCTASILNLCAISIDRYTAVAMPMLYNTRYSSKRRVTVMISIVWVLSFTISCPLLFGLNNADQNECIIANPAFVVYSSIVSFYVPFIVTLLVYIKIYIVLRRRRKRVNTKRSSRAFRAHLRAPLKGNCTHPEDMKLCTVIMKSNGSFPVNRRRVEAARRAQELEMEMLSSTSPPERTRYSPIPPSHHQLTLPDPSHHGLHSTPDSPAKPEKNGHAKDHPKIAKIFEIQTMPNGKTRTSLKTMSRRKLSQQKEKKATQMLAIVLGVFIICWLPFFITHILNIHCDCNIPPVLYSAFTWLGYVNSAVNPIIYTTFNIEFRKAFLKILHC
Delta-type opioid receptor (Homo sapiens), sequence (P41143 whole entry): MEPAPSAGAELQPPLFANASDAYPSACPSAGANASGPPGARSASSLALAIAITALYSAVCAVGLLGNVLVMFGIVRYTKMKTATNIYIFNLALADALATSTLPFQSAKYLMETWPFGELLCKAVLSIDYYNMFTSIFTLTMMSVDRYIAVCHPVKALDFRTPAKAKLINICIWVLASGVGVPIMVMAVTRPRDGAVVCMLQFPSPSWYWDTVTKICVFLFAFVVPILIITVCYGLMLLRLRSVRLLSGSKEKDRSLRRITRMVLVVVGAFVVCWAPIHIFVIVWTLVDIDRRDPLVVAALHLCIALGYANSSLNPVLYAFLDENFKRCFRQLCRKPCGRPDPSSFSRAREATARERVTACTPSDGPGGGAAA
Histamine H4 receptor (Homo sapiens), sequence (Q9H3N8 whole entry): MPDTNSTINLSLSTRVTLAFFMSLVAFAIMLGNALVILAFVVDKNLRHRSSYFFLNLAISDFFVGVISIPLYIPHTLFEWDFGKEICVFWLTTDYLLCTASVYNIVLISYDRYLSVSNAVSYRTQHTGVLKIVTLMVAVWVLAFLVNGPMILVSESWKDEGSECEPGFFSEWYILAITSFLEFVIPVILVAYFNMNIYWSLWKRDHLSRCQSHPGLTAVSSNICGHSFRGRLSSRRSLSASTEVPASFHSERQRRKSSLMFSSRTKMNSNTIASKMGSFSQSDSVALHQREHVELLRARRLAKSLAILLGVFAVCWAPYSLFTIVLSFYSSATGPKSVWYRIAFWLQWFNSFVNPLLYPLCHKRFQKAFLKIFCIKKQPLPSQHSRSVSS
5-hydroxytryptamine receptor 1D (Homo sapiens), sequence (P28221 whole entry): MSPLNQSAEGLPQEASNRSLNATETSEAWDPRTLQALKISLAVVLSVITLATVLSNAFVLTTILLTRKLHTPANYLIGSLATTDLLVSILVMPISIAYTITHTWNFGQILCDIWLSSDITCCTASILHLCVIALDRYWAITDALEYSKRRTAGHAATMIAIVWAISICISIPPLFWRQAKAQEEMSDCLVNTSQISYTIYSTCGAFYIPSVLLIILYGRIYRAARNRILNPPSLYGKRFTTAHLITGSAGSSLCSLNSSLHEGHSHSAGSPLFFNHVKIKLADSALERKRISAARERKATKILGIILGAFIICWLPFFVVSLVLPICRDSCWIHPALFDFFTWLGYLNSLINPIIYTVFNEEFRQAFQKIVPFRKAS
5-hydroxytryptamine receptor 7 (Homo sapiens), sequence (P34969 whole entry): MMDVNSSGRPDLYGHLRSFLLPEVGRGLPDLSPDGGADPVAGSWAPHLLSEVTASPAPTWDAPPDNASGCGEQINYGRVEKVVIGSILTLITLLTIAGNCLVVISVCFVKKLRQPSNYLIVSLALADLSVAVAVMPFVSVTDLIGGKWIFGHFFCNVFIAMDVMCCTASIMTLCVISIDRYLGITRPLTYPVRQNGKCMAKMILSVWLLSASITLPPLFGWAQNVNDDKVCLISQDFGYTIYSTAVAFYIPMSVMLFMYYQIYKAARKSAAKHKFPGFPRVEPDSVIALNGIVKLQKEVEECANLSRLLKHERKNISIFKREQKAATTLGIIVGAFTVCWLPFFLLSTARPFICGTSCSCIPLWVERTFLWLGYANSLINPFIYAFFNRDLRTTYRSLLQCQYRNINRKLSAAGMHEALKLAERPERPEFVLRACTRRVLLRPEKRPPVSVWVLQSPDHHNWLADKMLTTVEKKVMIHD
D(3) dopamine receptor (Homo sapiens), sequence (P35462 whole entry): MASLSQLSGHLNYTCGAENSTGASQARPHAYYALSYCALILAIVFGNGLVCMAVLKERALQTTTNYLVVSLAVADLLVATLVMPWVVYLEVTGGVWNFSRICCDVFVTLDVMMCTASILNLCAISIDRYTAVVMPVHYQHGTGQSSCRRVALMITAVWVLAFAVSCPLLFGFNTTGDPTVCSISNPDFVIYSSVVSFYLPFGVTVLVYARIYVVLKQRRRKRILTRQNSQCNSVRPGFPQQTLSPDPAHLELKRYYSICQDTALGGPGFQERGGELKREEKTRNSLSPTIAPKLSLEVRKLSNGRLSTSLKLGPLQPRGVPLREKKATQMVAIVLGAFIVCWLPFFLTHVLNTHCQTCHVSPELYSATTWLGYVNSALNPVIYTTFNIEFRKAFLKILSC
5-hydroxytryptamine receptor 2B (Homo sapiens), sequence (P41595 whole entry): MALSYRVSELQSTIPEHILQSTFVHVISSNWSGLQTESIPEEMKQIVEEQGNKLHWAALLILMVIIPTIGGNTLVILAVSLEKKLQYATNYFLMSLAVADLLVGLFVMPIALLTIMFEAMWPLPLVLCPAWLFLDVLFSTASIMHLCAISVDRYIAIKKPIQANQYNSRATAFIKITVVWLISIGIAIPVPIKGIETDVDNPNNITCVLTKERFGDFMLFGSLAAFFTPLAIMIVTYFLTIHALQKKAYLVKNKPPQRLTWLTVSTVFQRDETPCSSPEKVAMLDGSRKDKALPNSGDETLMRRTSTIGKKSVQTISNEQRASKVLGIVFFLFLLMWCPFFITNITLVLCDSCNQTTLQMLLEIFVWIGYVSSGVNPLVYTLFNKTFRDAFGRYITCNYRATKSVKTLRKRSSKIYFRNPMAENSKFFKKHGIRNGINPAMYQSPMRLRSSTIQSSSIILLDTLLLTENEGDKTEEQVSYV
Sigma intracellular receptor 2 (Homo sapiens), sequence (Q5BJF2 whole entry): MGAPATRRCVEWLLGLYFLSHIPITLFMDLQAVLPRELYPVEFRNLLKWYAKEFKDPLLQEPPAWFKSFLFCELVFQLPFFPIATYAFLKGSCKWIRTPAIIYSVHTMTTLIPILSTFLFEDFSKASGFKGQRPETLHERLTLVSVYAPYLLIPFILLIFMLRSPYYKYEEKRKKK
Sodium-dependent dopamine transporter (Homo sapiens), sequence (Q01959 whole entry): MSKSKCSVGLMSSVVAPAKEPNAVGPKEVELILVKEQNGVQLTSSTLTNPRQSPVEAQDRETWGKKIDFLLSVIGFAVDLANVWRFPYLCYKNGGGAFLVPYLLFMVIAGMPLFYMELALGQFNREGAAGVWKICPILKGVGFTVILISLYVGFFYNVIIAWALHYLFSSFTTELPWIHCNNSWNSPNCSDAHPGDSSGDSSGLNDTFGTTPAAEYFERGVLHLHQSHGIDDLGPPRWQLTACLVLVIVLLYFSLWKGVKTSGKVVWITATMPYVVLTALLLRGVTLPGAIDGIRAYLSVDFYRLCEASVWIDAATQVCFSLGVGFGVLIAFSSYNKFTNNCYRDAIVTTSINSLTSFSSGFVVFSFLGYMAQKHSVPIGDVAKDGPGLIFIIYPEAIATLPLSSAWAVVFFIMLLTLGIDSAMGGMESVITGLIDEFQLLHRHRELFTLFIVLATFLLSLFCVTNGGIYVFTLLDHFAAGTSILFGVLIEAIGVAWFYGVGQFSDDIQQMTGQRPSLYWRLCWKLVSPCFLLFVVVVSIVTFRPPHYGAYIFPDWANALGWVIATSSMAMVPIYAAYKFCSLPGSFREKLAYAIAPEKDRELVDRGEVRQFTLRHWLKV
Beta-2 adrenergic receptor (Homo sapiens), sequence (P07550 whole entry, looked up): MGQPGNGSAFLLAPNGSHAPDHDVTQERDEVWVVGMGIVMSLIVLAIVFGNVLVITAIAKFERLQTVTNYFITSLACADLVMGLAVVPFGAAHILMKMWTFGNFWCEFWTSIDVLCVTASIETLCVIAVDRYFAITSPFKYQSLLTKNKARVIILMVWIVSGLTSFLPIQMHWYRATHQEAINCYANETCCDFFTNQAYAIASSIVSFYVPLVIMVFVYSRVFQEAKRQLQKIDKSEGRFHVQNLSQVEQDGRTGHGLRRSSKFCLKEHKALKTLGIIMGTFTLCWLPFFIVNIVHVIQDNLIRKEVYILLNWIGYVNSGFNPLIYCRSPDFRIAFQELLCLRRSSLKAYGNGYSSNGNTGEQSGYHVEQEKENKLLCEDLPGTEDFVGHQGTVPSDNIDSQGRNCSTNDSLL
5-hydroxytryptamine receptor 1B (Homo sapiens), sequence (P28222 whole entry): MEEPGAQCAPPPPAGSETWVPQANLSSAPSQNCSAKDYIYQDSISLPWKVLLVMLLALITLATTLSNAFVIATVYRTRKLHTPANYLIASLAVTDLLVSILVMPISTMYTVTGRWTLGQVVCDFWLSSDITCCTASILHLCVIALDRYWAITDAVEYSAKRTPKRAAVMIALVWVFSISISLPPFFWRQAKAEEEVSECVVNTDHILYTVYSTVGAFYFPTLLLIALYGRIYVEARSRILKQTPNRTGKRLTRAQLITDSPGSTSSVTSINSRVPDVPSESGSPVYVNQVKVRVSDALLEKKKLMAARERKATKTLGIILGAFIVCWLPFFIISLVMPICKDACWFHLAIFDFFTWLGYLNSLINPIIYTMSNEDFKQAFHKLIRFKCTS

With `COc1ccccc1N1CCN(CCCCNC(=O)c2ccc3ccccc3c2)CC1`, the inhibition in assay [1] is 91.8%; in [2], 8.79%; in [3], 38.9%; in [4], 96.4%; in assay [5] it was 103%; in [6], 93.2%. Also, the inhibition in assay [7] is 73.9%; in [8] it was 97%; in assay [9], 0.02%; in [10], 102%; in [11], 98.8%; in assay [12] it was -2.88%. The inhibition in [13] was 79.8%; in assay [14], 3.09%; in assay [15], 97%; in [16] it was -1.42%; in assay [17], 94%.
As to `NCCc1c[nH]c2ccc(C(N)=O)cc12`, the inhibition was 55.9% in assay [1]; -3.92% in [2]; 4.33% in assay [3]; 63.4% in assay [4]; 98.3% in assay [5]; 101% in assay [6]. The inhibition in [7] was 44.6%; in assay [8], 78.8%; in [10], 100%; in [18], 7.17%; in assay [11] it was -9.81%; in assay [12], -3.42%. Besides, the inhibition in assay [13] is 28.8%; in assay [14], 3.95%; in [15], -4.09%; in [16] it was -8.47%; in [17], 14.8%.
In the case of `CCc1nn2c(C)cc(C)nc2c1Cc1ccc(-c2nnc(C3CCNCC3)o2)cc1`, the inhibition in assay [19] was 6.13%; in assay [1], -9.55%; in assay [2], -1.79%; in assay [3], 12.5%; in assay [4] it was 80.3%; in [5], 14.8%. Further, the inhibition in assay [6] is 16.6%; in assay [7], 4.13%; in [8], 9.86%; in assay [9] it was 93.4%; in [10] it was 5.87%; in assay [18], -9.36%. The inhibition was -9.75% in [11]; -1.19% in [12]; 50.7% in assay [13]; 9.84% in assay [15]; -2.43% in assay [16]; -0.67% in assay [17].
Consider `CCCCCCCCCCCCC/C=C/[C@@H](O)[C@@H](N)COP(=O)(O)O`, for which the inhibition in assay [19] was 22.7%; in assay [1], 10.6%; in assay [2] it was 7.9%; in [4] it was 79.4%; in assay [5], 63.5%; in assay [6], 8.79%. Moreover, the inhibition is 11.5% in [8]; -1.93% in assay [9]; 16.1% in assay [10]; 1.79% in assay [18]; 20.4% in [12]; 30.4% in [13]. In addition, the inhibition in assay [14] was 9.29%; in assay [15], 14.3%; in assay [16], -3.21%; in assay [17], 9.46%.
As for `Cc1nc(-c2ccc(C(F)(F)F)cc2)sc1COc1ccc([C@H](CC(=O)O)c2ccon2)cc1`, the inhibition was -0.99% in assay [19]; 16.7% in [1]; -1.65% in [2]; 7.87% in assay [3]; 26.5% in assay [4]; 8.11% in assay [5]. Also, the inhibition is 51.1% in assay [7]; 0.53% in assay [8]; 4.07% in assay [10]; 42.1% in [18]; 23% in [12]; -7.02% in [13]. Also, the results for the inhibition in [14], in assay [16] and in assay [17] were 2.18%, 48.3% and -8.39%, respectively.
In the case of `Cc1c(F)cccc1NC(=O)Nc1ccc(Cl)c(S(=O)(=O)[C@H]2CCCNC2)c1O`, the inhibition was 3.67% in [19]; 11.7% in assay [1]; 5.61% in [3]; -2.39% in assay [5]; 8.6% in assay [6]; 14.9% in [7]. The inhibition in [8] is 44.3%; in assay [10], -3.91%; in assay [18] it was 25.8%; in [11], 19.2%; in assay [12] it was -5.71%; in assay [13], -3.61%. Besides, the inhibition is 22.8% in assay [14], 25.6% in assay [15] and -0.14% in assay [16].
Regarding `Cc1ccc2c(c1)c1c(n2CCc2ccc(C)nc2)CCN(C)C1`, the inhibition is 32.6% in assay [19]; 57.8% in assay [1]; -9.1% in assay [3]; 32.2% in assay [4]; 70.8% in assay [5]; 74.3% in assay [6]. For the same molecule, the inhibition in assay [8] was 76.9%; in assay [9] it was 21.6%; in assay [10] it was 90.7%; in assay [18], 72.3%; in assay [11], 88.6%; in assay [12] it was 1.39%. In addition, the inhibition is 2.42% in [13]; 18% in [14]; 95.1% in [15]; 84.6% in assay [16]; 84.6% in assay [17].
On to `CN[C@@H]1CCc2[nH]c3ccc(C(N)=O)cc3c2C1`, for which the inhibition in assay [19] was 20.9%; in assay [1], 67.2%; in assay [2], 2.79%; in [3], 22.7%; in assay [4], 54.9%; in assay [5], 72.3%. Further, the inhibition was 88.2% in assay [6]; 6.12% in assay [8]; 24.7% in [9]; 92% in [10]; 47.6% in assay [18]; 11.8% in assay [11]. The inhibition in [12] is 2.74%; in assay [13] it was 54.7%; in assay [14] it was 15.7%; in assay [15], 0.33%; in assay [16] it was 16.6%; in [17], 19.6%.
